The Ki is a dissociation constant, usually derived from enzyme kinetics or from competition with a known ligand. The EC50 is the midpoint of the concentration-response curve.

The values below come from patent publication US20110028447A1, “INDAZOLE DERIVATIVES” (Pfizer Inc., priority 2008, published 2011).

SMILES strings stand for the structures. Like-named read-outs stand apart in the source and are kept apart here.

For experiment [1], the target named is T1, human CB1 receptor (Homo sapiens, UniProt P21554). The experiment in a line: Human CB1 receptor binding, [3H] CP-55,940 displacement on HEK cell membranes. Details: expressed in transfected cells; host or cells: HEK cells, doxycycline-induced; membrane preparation. The gist of the method:
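Radioligand displacement: [3H] CP-55,940 at […] final, 1 μg membrane protein per well from HEK cells with tetracycline-inducible human CB1, 60 min at room temperature, pH 7.4 Tris/NaCl/MgCl2/EGTA/BSA buffer. 50 μM WIN-55,212-2 set nonspecific binding; bound label filtered, counted, and fitted for EC50 and Ki values.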

Experiment [2] concerns the target T1, human CB1 receptor. The experiment in a line: [35S] GTPγS binding on membranes of CHO cells expressing the human CB1 receptor (agonism). The format is biochemical. Details: expressed in transfected cells; membrane preparation. An outline of the steps:
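Membranes from human CB1-expressing CHO cells (5 μg/well) incubated with test compound and [35S]GTPγS in 50 mM Tris pH 7.4, 100 mM NaCl, 3 mM MgCl2, 0.2 mM EGTA, 0.04% BSA for 45 min at 37 °C. Bound label collected by filtration, scintillation counted; EC50 from curve fits.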
In general terms: GTPγS is a poorly hydrolysed GTP analogue; its binding reports G protein activation.

Where [3] appears, read: GTPγS EC50, human CB1, CHO cell membranes.
The mark [4] stands for this setting: human CB1, CHO cell membranes, read-out: GTPγS EC50.

T1 sequence (P21554 whole entry): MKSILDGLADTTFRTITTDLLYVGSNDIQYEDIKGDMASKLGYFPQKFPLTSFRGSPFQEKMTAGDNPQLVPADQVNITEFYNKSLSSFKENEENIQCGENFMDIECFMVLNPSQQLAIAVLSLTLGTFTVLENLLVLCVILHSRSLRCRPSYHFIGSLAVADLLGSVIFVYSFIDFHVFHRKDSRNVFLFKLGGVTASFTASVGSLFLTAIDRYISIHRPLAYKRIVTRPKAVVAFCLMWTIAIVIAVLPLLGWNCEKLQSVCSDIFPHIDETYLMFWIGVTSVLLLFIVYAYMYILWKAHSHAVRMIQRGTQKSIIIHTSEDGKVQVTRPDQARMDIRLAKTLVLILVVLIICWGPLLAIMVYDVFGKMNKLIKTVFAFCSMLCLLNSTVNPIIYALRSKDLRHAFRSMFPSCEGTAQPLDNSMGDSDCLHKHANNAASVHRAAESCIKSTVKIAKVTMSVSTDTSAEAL

`Cc1cc2c(C(=O)N[C@H](C(=O)NCCO)C(C)(C)C)nn(Cc3ccc(F)cc3)c2cc1F` [Example 511] returned an inhibitory constant (Ki) in experiment [1] (CB1 Ki) of 0.68 nM. Also, in experiment [2] (setting [3]), the EC50 was determined as 6.7 nM.
On the same counts, the results for `Cc1cc2c(C(=O)N[C@H](C(=O)NCCS(N)(=O)=O)C(C)(C)C)nn(Cc3ccc(F)cc3)c2cc1F` [Example 512] are 8.4 nM and 31.4 nM.
On the same counts, the results for `CC(C)(C)[C@H](NC(=O)c1nn(Cc2ccc(F)cc2)c2ccccc12)C(=O)Nc1cnoc1` [Example 513] are 2.3 nM and 13.7 nM.
On the same counts, the results for `Cc1cc(NC(=O)[C@@H](NC(=O)c2nn(Cc3ccc(F)cc3)c3ccccc23)C(C)(C)C)sn1` [Example 514] are 3.03 nM and 33.3 nM.
`CC(C)(C)[C@H](NC(=O)c1nn(Cc2ccc(F)cc2)c2ccccc12)C(=O)NC[C@@H](O)[C@H](O)CO` [Example 516] came in with an inhibition constant (Ki) in experiment [1] (CB1 Ki) of 4.28 nM. Besides, the concentration for a half-maximal effect (EC50) in experiment [2] (setting [3]) was 44.6 nM.
The like results for `CC(C)(C)[C@H](NC(=O)c1nn(Cc2ccc(F)cc2)c2ccccc12)C(=O)NC[C@H](O)[C@@H](O)CO` [Example 517] were, in that order, 15.9 nM and 111 nM.
Take `CC(C)(C)[C@H](NC(=O)c1nn(Cc2ccc(F)cc2)c2ccccc12)C(=O)NCC(=O)Nc1cnoc1` [Example 518]: the Ki in experiment [1] (read-out: CB1 Ki) was 1.8 nM. In addition, in experiment [2] (setting [4]), the EC50 was determined as 13.6 nM.
The like results for `CC(C)(C)[C@H](NC(=O)c1nn(Cc2ccc(F)cc2)c2ccccc12)C(=O)NCC(=O)Nc1nncs1` [Example 519] were, in that order, 0.95 nM and 5.77 nM.
`CC(C)(C)[C@H](NC(=O)c1nn(Cc2ccc(F)cc2)c2ccccc12)C(=O)NCC(=O)Nc1ccccn1` [Example 520]: the Ki in experiment [1] (read-out: CB1 Ki) is 1.88 nM. For the same compound, in experiment [2] (setting [4]), the 50% effective concentration (EC50) came out at 10.1 nM.
Turning to `CC(C)(C)[C@H](NC(=O)c1nn(Cc2ccc(F)cc2)c2ccccc12)C(=O)NCC(=O)NC[C@@H](O)CO` [Example 523], in experiment [1] (read-out: CB1 Ki), the Ki amounted to 5.22 nM. The EC50 in experiment [2] (setting [4]) is 2.8 nM.
